Source: patent publication EP1206248B1, “CONTROLLED-RELEASE SEDATIVE-HYPNOTIC COMPOSITIONS AND METHODS RELATED THERETO” (Neurocrine Biosciences, Inc., priority 1999, dated 2001)
≈ marks a conversion by molar mass, not a printed value.

How the values were obtained:
[1] = Plasma half-life and pharmacokinetic parameters from plasma concentration-time profiles; assay type: in vivo; conditions: human
Description: The mean plasma half-life of a sedative-hypnotic compound may be determined using well known techniques. Terminal half-life may be determined using standard pharmacokinetic calculations, such as those presented by Rolland and Tozer (Clinical Pharmacokinetics Concepts and Applications, 3rd. Ed., Chap. 3, 1995). In addition, software is commercially available which performs this calculation, such as the product sold under the tradename "WinNinlin™" (Prof. Ver.1.5). […]
To assess the plasma concentration time profiles, plasma concentration, Tmax and Tmin may be determined using well known techniques. […] Any suitable assay may be used to determine plasma levels, such as ELISA, RIA, or chromatography (e.g., gas-liquid chromatography or high pressure liquid chromatography) linked to any suitable detection system such as UV, fluorescence, mass spectrometry or an electrochemical system). […]
In this experiment, commercially available plasma profiling sofltware (GastroPlus™) (Simulations Plus Inc., CA) was used to simulate the effects of varying controlled release profiles and pharmacokinetic parameters based on in vivo plasma concentrations of NBI-34060 as measured in 12-healty male human subjects. […]

[2] = log D partition coefficient

With `CC(=O)N(C)c1cccc(-c2ccnc3c(C(=O)c4cccs4)cnn23)c1` [NBI-34060, N-methyl-N-(3-{3-[2-thienylcarbonyl]-pyrazolo-[1,5-a]-pyrimidin-7-yl}-phenyl)acetamide] the half-life ([1]; plasma half-life of NBI-34060) was 1.3 h, the Vd ([1]; male, one-compartment pharmacokinetic model, assuming 70 kg subject weight, read-out: volume of distribution (Vd)) was 2.27 L/kg and the “resulting pH” value (Solubility in water; pH of the aqueous solution at approximately 20-30 µg/ml) was “approximately 8.0”. The solubility (Solubility in water; water, pH 8, water) was 20 to 30 µg/mL (≈ 53.1 to 79.7 µM) and the logD [2] was 1.73.
